Where “and” joins values, the source holds several entries; their conditions need not be identical. Equal entries are not always repeated.
Legend:
[1] = molecular target: T1, Equilibrative nucleoside transporter 1 (Homo sapiens, UniProt Q99808)
T1 sequence (Q99808 whole entry): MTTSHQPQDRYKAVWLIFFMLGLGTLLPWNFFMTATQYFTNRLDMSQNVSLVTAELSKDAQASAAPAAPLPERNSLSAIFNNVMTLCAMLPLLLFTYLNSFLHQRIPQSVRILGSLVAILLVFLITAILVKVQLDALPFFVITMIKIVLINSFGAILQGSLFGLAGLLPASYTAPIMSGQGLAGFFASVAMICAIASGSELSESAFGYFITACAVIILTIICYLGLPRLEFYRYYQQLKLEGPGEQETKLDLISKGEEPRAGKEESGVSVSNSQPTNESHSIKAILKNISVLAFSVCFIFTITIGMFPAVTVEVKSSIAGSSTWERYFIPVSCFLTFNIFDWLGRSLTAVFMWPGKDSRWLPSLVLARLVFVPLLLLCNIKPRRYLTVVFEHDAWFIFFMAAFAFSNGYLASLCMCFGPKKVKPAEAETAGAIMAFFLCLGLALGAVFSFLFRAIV

D(3) dopamine receptor = D(3) dopamine receptor (Homo sapiens, UniProt P35462)
[2] = molecular target: Voltage-gated inwardly rectifying potassium channel KCNH2 (Homo sapiens, UniProt Q12809); format: functional
Melanocortin receptor 3 = Melanocortin receptor 3 (Homo sapiens, UniProt P41968)
B2 bradykinin receptor = molecular target: T2, B2 bradykinin receptor (Homo sapiens, UniProt P30411)
T2 sequence (P30411 whole entry): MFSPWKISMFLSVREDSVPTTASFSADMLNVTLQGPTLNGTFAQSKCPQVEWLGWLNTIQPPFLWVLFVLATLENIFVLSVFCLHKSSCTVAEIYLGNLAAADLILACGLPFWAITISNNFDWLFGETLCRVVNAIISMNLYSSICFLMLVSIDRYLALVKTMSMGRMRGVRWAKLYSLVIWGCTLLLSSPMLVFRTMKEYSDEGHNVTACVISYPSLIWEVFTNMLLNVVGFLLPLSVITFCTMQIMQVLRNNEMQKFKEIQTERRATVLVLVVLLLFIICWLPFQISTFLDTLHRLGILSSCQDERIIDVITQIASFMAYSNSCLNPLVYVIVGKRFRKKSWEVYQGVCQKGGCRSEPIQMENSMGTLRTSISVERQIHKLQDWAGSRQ

[3] = molecular target: T3, Cholecystokinin receptor type A (Homo sapiens, UniProt P32238)
T3 sequence (P32238 whole entry): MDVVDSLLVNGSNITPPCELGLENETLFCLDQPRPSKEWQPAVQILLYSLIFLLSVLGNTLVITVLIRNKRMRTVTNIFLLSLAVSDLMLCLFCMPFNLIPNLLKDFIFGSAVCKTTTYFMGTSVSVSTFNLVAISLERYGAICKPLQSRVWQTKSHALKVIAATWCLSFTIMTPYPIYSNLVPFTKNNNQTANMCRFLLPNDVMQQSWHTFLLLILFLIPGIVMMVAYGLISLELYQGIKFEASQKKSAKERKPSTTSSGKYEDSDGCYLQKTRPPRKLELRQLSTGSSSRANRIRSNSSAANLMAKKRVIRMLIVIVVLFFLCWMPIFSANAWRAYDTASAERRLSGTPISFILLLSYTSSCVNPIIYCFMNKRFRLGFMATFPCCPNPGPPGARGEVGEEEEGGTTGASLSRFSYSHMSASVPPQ

Adenosine receptor A1 = molecular target: T4, Adenosine receptor A1 (Homo sapiens, UniProt P30542)
T4 sequence (P30542 whole entry): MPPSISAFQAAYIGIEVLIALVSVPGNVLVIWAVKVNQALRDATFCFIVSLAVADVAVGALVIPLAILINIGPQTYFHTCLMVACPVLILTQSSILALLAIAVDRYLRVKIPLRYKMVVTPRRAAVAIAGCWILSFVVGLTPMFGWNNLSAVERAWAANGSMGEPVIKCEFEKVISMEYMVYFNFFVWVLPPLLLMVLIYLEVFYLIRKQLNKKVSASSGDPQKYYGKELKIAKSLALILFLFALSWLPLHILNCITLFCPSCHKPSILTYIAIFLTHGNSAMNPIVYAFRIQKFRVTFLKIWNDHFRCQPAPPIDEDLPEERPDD

[4] = molecular target: Growth hormone secretagogue receptor type 1 (Homo sapiens, UniProt Q92847)
[5] = molecular target: T5, Muscarinic acetylcholine receptor M2 (Homo sapiens, UniProt P08172); format: functional, cell-based
T5 sequence (P08172 whole entry): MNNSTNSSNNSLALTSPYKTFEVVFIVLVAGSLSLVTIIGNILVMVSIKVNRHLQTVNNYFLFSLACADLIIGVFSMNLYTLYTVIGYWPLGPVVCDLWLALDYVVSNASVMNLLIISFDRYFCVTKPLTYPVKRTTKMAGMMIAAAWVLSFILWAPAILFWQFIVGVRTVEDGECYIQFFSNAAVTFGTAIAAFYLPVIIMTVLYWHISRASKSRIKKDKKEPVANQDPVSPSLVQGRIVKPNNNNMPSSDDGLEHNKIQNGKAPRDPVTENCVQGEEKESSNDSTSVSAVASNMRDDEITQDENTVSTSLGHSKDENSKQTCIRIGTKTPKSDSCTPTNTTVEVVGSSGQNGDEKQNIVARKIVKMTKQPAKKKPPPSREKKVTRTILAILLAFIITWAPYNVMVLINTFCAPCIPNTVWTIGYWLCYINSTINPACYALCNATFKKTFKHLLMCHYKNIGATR

Histamine H2 receptor = Histamine H2 receptor (Homo sapiens, UniProt P25021); format: functional, cell-based
Thromboxane A2 receptor = molecular target: T6, Thromboxane A2 receptor (Homo sapiens, UniProt P21731)
T6 sequence (P21731 whole entry): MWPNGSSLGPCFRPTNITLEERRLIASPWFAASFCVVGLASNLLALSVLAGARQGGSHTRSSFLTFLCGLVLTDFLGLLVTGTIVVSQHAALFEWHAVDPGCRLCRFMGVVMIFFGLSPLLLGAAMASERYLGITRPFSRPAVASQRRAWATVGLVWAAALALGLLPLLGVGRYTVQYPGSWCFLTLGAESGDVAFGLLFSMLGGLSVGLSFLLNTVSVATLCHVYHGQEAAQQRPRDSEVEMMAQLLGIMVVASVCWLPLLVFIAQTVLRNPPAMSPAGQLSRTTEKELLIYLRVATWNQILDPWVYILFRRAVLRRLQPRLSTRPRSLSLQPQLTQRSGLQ
Note: assay procedure not described here.

Sequence of Melanocortin receptor 3 (P41968 whole entry): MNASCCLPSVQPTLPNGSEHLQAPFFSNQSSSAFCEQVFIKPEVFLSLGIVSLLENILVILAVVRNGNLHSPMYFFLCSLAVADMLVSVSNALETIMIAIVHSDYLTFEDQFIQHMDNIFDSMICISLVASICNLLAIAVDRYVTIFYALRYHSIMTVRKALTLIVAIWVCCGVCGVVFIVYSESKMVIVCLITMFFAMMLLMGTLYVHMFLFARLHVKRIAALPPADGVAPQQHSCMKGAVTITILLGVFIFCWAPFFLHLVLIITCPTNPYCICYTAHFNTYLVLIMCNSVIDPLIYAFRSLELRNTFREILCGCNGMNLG
Sequence of Growth hormone secretagogue receptor type 1 (Q92847 whole entry): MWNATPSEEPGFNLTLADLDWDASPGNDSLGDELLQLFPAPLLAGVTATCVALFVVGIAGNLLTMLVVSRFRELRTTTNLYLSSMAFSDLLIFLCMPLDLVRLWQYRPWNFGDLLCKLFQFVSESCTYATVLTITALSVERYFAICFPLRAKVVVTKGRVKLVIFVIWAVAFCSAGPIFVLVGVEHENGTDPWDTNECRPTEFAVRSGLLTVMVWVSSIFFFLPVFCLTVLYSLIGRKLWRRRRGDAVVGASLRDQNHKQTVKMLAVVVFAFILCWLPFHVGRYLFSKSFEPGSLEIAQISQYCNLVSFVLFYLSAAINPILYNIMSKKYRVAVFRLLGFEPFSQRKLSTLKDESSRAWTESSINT
Sequence of Histamine H2 receptor (P25021 whole entry): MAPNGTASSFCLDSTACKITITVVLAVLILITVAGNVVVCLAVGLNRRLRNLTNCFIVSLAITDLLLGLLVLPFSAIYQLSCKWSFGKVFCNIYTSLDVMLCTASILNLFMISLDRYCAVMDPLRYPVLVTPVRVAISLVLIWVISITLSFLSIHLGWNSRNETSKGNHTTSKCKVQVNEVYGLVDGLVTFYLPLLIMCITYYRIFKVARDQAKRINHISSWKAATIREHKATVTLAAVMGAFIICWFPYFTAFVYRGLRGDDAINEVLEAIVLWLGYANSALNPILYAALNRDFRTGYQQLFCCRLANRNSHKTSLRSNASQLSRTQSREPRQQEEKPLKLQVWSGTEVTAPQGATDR
Sequence of Voltage-gated inwardly rectifying potassium channel KCNH2 (Q12809 whole entry): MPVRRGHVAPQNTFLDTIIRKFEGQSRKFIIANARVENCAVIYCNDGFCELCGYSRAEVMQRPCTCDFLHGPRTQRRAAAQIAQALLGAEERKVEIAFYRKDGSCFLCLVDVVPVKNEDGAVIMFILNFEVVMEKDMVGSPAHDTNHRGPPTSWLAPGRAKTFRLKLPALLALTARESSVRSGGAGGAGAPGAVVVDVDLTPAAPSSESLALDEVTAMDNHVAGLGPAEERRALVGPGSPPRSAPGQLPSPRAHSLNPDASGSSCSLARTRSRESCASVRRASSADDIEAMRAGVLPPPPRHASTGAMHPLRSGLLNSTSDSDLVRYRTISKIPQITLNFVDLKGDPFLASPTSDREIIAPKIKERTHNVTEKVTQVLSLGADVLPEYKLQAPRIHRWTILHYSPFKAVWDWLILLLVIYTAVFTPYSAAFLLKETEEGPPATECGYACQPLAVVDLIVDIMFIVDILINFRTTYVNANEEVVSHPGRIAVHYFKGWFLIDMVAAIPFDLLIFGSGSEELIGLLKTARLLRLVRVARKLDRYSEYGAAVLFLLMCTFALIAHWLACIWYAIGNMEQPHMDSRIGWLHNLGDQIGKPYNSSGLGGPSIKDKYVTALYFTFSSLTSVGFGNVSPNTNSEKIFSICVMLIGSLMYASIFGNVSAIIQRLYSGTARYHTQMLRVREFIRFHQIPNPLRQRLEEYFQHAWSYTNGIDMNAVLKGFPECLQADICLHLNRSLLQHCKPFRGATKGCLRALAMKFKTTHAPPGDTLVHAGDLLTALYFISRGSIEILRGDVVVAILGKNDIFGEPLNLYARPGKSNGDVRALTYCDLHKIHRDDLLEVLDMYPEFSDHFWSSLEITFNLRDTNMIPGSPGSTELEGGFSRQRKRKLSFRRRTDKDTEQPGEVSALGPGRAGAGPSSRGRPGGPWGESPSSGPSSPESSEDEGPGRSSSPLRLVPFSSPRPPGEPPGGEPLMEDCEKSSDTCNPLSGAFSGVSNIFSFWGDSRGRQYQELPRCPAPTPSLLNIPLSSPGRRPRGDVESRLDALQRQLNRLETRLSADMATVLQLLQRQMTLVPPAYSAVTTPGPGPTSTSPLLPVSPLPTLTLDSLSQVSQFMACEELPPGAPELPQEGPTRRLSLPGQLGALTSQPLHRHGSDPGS
Sequence of D(3) dopamine receptor (P35462 whole entry): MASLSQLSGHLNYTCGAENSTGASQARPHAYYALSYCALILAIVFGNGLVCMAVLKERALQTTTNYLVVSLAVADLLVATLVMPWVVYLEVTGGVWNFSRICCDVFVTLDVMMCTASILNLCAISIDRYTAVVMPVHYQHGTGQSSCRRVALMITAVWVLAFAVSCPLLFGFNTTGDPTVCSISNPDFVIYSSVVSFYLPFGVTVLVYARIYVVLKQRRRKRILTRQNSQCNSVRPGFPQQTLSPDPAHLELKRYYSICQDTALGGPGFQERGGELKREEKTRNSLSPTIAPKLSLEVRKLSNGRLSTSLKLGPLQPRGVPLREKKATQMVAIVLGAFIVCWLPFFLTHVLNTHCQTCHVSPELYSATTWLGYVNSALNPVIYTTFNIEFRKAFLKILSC

## CC(C)(C)C(=O)OCC(=O)[C@H]1CC[C@H]2[C@@H]3CCC4=CC(=O)CC[C@]4(C)[C@H]3CC[C@]12C [DESOXYCORTICOSTERONE PIVALATE]
[1]
  AC50: > 10 µM
D(3) dopamine receptor
  AC50: > 30 µM
[2]
  AC50: > 30 µM
Melanocortin receptor 3
  AC50: > 10 µM
B2 bradykinin receptor
  AC50: > 10 µM
[3]
  AC50: > 10 µM
Adenosine receptor A1
  AC50: > 10 µM
[4]
  AC50: > 10 µM
[5]
  AC50: > 10 µM
Histamine H2 receptor
  AC50: > 10 µM
Thromboxane A2 receptor
  AC50: > 10 µM

## CC(CCc1ccc(O)cc1)NCCc1ccc(O)c(O)c1 (stereo unspecified) [DOBUTAMINE]
[1]
  AC50: > 30 µM
D(3) dopamine receptor
  AC50: 0.728 µM
[2]
  AC50: 20.3 µM
Melanocortin receptor 3
  AC50: > 30 µM
B2 bradykinin receptor
  AC50: > 30 µM
[3]
  AC50: > 30 µM
Adenosine receptor A1
  AC50: > 30 µM
[4]
  AC50: > 30 µM
[5]
  AC50: > 30 µM
Histamine H2 receptor
  AC50: > 10 µM
Thromboxane A2 receptor
  AC50: > 30 µM

## CCOC(=O)c1cncn1[C@H](C)c1ccccc1 [ETOMIDATE]
[1]
  AC50: > 10 µM
D(3) dopamine receptor
  AC50: > 30 µM
[2]
  AC50: > 30 µM
Melanocortin receptor 3
  AC50: > 10 µM
B2 bradykinin receptor
  AC50: > 10 µM
[3]
  AC50: > 10 µM
Adenosine receptor A1
  AC50: > 10 µM
[4]
  AC50: > 10 µM
[5]
  AC50: > 10 µM
Histamine H2 receptor
  AC50: > 10 µM
Thromboxane A2 receptor
  AC50: > 10 µM

## CC(C(=O)O)c1ccc(-c2ccccc2)c(F)c1 (stereo unspecified) [FLURBIPROFEN]
[1]
  AC50: > 10 µM
D(3) dopamine receptor
  AC50: 0.086 µM
[2]
  AC50: > 30 µM
Melanocortin receptor 3
  AC50: > 10 µM
B2 bradykinin receptor
  AC50: > 10 µM
[3]
  AC50: > 10 µM
Adenosine receptor A1
  AC50: > 10 µM
[4]
  AC50: > 10 µM
[5]
  AC50: > 10 µM
Histamine H2 receptor
  AC50: > 10 µM
Thromboxane A2 receptor
  AC50: > 10 µM

## CCC(=O)O[C@]1(C(=O)SCF)[C@H](C)C[C@H]2[C@@H]3C[C@H](F)C4=CC(=O)C=C[C@]4(C)[C@@]3(F)[C@@H](O)C[C@@]21C [FLUTICASONE PROPIONATE]
[1]
  AC50: > 30 µM
D(3) dopamine receptor
  AC50: > 30 µM
[2]
  AC50: > 30 µM
Melanocortin receptor 3
  AC50: > 30 µM
B2 bradykinin receptor
  AC50: > 30 µM
[3]
  AC50: > 30 µM
Adenosine receptor A1
  AC50: > 30 µM
[4]
  AC50: > 30 µM
[5]
  AC50: > 30 µM
Histamine H2 receptor
  AC50: > 10 µM
Thromboxane A2 receptor
  AC50: > 30 µM

## C[C@]12CCC(=O)C(O)=C1CC[C@@H]1[C@@H]2CC[C@]2(C)C(=O)CC[C@@H]12 [FORMESTANE]
[1]
  AC50: > 30 µM
D(3) dopamine receptor
  AC50: > 30 µM
[2]
  AC50: > 30 µM
Melanocortin receptor 3
  AC50: > 30 µM
B2 bradykinin receptor
  AC50: > 30 µM
[3]
  AC50: > 30 µM
Adenosine receptor A1
  AC50: > 30 µM
[4]
  AC50: > 30 µM
[5]
  AC50: > 30 µM
Histamine H2 receptor
  AC50: > 30 µM
Thromboxane A2 receptor
  AC50: > 30 µM

## CCC1(c2ccccc2)CCC(=O)NC1=O (stereo unspecified) [GLUTETHIMIDE]
[1]
  AC50: > 10 µM
D(3) dopamine receptor
  AC50: > 30 µM
[2]
  AC50: > 30 µM
Melanocortin receptor 3
  AC50: > 10 µM
B2 bradykinin receptor
  AC50: > 10 µM
[3]
  AC50: > 10 µM
Adenosine receptor A1
  AC50: > 10 µM
[4]
  AC50: > 10 µM
[5]
  AC50: > 10 µM
Histamine H2 receptor
  AC50: > 10 µM
Thromboxane A2 receptor
  AC50: > 10 µM

## CC(C)NCC(O)c1ccc(O)c(O)c1 (stereo unspecified) [ISOPROTERENOL]
[1]
  AC50: > 30 µM
D(3) dopamine receptor
  AC50: > 30 µM
[2]
  AC50: > 30 µM
Melanocortin receptor 3
  AC50: > 30 µM
B2 bradykinin receptor
  AC50: > 30 µM
[3]
  AC50: > 30 µM
Adenosine receptor A1
  AC50: > 30 µM
[4]
  AC50: > 30 µM
[5]
  AC50: > 10 µM
Histamine H2 receptor
  AC50: > 10 µM
Thromboxane A2 receptor
  AC50: > 30 µM

## CC(C(=O)O)c1ccc(CC2CCCC2=O)cc1 (stereo unspecified) [LOXOPROFEN]
[1]
  AC50: > 30 µM
D(3) dopamine receptor
  AC50: > 30 µM
[2]
  AC50: > 30 µM
Melanocortin receptor 3
  AC50: > 30 µM
B2 bradykinin receptor
  AC50: > 30 µM
[3]
  AC50: > 30 µM
Adenosine receptor A1
  AC50: > 30 µM
[4]
  AC50: > 30 µM
[5]
  AC50: > 30 µM
Histamine H2 receptor
  AC50: > 30 µM
Thromboxane A2 receptor
  AC50: > 30 µM

## C[C@H](Cc1ccc(O)c(O)c1)[C@@H](C)Cc1ccc(O)c(O)c1 [MASOPROCOL]
[1]
  AC50: > 30 µM
D(3) dopamine receptor
  AC50: 1.8 µM
[2]
  AC50: > 30 µM
Melanocortin receptor 3
  AC50: > 30 µM
B2 bradykinin receptor
  AC50: > 10 µM
[3]
  AC50: > 10 µM
Adenosine receptor A1
  AC50: > 30 µM
[4]
  AC50: > 10 µM
[5]
  AC50: > 30 µM
Histamine H2 receptor
  AC50: > 10 µM
Thromboxane A2 receptor
  AC50: > 10 µM and 29 µM (2×)

## OC1(c2ccc(Cl)cc2)c2ccccc2C2=NCCN21 (stereo unspecified) [MAZINDOL]
[1]
  AC50: > 30 µM
D(3) dopamine receptor
  AC50: > 30 µM
[2]
  AC50: > 30 µM
Melanocortin receptor 3
  AC50: > 30 µM
B2 bradykinin receptor
  AC50: > 30 µM
[3]
  AC50: > 30 µM
Adenosine receptor A1
  AC50: > 30 µM
[4]
  AC50: > 30 µM
[5]
  AC50: > 30 µM
Histamine H2 receptor
  AC50: > 10 µM
Thromboxane A2 receptor
  AC50: > 30 µM
